Assay results from patent US20050079549A1, “Methods for modeling GPCRs and for producing ligand blocking and receptor activating antibodies for same” (priority 2003, published 2005).

What was measured:
[1] = system: mock transfected CHO control cells; test: phospho ERK 1/2 ELISA in mock transfected CHO control cells; type: cell-based; conditions: 10 nM S1P, no antibody
Protocol: (§1) For example, CHO cells that are stably transfected with human S1P4 (formerly Edg 6) a GPCR (g protein coupled receptor) for sphingosine 1-phosphate (S1P) a lipid growth factor mediator or mock transfected CHO control cells are washed in DMEM and starved of serum for 4 hours at 37° C.
(§2) One million cells in 1 ml serum free DMEM were challenged with monoclonal antibodies that had been raised against a S1P4 cyclic molecular mimic loop 1B structure described herein for 10 minutes at room temperature. Monoclonal antibody supernatants containing DMEM with 10% fetal bovine serum antibiotics, L glutamine media supplements, were pretreated with cell culture tested Norite™ (Sigma Chemical Company) for 24 hours at 4 C to remove endogenous S1P from the media prior to the addition of supernatant to cells. Following antibody addition and incubation, 10 nM S1P was added for 15 minutes at 37 C. Controls of media alone, media and Norite™, media and 10 nM S1P, media-Norite™ and SIP, and media PMA were included. [drawing]

[2] = target: T1, human S1P4 (formerly Edg 6) (Homo sapiens, UniProt O95977); test: phospho ERK 1/2 ELISA in CHO cells stably transfected with human S1P4; type: cell-based; conditions: CHO EDG6 (S1P4); 10 nM S1P, no antibody
T1 sequence (O95977 1-384): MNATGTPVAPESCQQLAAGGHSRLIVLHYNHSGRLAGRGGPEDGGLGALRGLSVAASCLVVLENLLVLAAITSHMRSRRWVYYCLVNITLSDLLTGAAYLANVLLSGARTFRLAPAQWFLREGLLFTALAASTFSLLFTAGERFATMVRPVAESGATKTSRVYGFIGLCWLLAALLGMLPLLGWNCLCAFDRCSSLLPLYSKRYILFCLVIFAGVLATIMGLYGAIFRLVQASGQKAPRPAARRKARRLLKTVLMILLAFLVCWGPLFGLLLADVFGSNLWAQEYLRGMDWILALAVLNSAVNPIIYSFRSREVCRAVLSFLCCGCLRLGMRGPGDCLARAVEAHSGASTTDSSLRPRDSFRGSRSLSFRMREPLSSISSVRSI
Protocol: as §1, §2

[3] = NMR spectra of mixtures of loop peptide and O-phosphoethanolamine; type: binding; conditions: mixture with O-phosphoethanolamine
Source text: NMR is used to characterize the interactions between the extracellular loops and O-phosphoethanolamine, a mimic of the S1P4 endogenous ligand to determine if potential for ligand binding exists.
The most important NMR result for the characterization of the interaction between the constrained peptides and O-phosphoethanolamine are heteronuclear 2D-NOE that allow derivation of the distances between the cationic nitrogens of R121 and R287 and the phosphate phosphorous atom of O-phosphoethanolamine. Additional information is derived from chemical shift changes of the protons in residues of the loop peptides upon addition of the phosphoethanolamine as well as chemical shift changes of protons on the phosphoethanolamine. Such chemical shift changes are indicative of changes in the electronic environment of these protons and are used in high-throughput NMR assays of ligand binding. (Shuker, S. B., Hajduk, P. J., Meadows, R. P. & Fesik, S. W. Discovering High-Affinity Ligands for Proteins: SAR by NMR. Science 274, 1531-1534 (1996)).

phospho ERK 1/2 [2]	ligand binding by NMR [3]	Molecule	phospho ERK 1/2 [1]
1.280 ng/mL	–	CCCCCCCCCCCCC/C=C/[C@@H](O)[C@@H](N)COP(=O)(O)O [Clone S1P, sphingosine 1-phosphate]	0.000 ng/mL
–	reflect ligand binding	FLVWGPLFGLLLADVFGSNLWAQEYLRGMDWILAAVL [Loop 3, conformationally constrained peptide mimicking S1P4 extracellular loop 3]	–
–	reflect ligand binding	TGAYLANVLLSGARTFRLAPAQWFLREGCLFT [Loop 1 B, conformationally constrained (disulfide) peptide mimicking S1P4 extracellular loop 1]	–
